According to PubChem BioAssay (NCI):
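Interpolation was linear, between the two tested concentrations surrounding the appropriate level; five concentrations were tested over 48 hours in 96-well plates. Abbreviation: GI50, concentration required for 50% inhibition of growth. The concentration for full growth arrest is given as TGI.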

Legend:
Experiment in all cases: NCI tumour cell line growth inhibition, 48 h
[1] = system: DLD-1 colon
[2] = system: HOP-18 NSCLC
[3] = system: XF 498 CNS
[4] = system: DMS 114 small cell lung
[5] = system: LXFL 529 NSCLC
[6] = system: SNB-78 CNS
[7] = system: DMS 273 small cell lung
[8] = system: RXF-631 renal
[9] = system: MDA-N

Compound | TGI [1] | TGI [2] | TGI [3] | TGI [4] | TGI [5] | TGI [6] | TGI [7] | TGI [9] | other results
CC(C)N1C(C)[C@@H](c2ccccc2)O[P@@]1(=O)CC1=CCCCC1 (stereo partly specified) | > 100 µM | > 100 µM | > 100 µM | > 100 µM | > 100 µM | – | – | – | –
COC(=O)C(=O)C(C(C)=O)C(=O)NCc1ccccc1 (stereo unspecified) | > 100 µM | > 100 µM | > 100 µM | > 100 µM | > 100 µM | > 100 µM | > 100 µM | – | –
COc1cc([C@@H]2OC(=O)C3C2C(=O)O[C@H]3c2ccc(O)c(OC)c2)ccc1O (stereo partly specified) | > 100 µM | > 100 µM | – | > 100 µM | > 100 µM | > 100 µM | > 100 µM | – | TGI [8]: > 100 µM
O=C(NCCCl)Nc1ccccc1 | – | – | – | – | – | – | – | > 100 µM | –
COc1c(-c2ccc3c(c2)OCO3)oc2cc(O)cc(O)c2c1=O | – | – | – | – | – | – | – | > 100 µM | –
CC(=O)c1ccc2c3c1[C@H]1O[C@H]1c1cccc(c1-3)[C@@H]1O[C@H]21 | – | – | – | – | – | – | – | 5.86 µM | –
O=C1CC(Cc2n[nH]c3c2CCCC3)CC(=O)N1 | – | – | – | – | – | – | – | > 100 µM | –
CC(=O)[CH-]C(=O)c1ccccc1.CC(=O)[CH-]C(=O)c1ccccc1.CC[C@H](/C=C/C(C)[C@H]1CCC2[C@@H]3CC=C4C[C@@H]([O-])CC[C@]4(C)C3CC[C@@]21C)C(C)C.CC[C@H](/C=C/C(C)[C@H]1CCC2[C@@H]3CC=C4C[C@@H]([O-])CC[C@]4(C)C3CC[C@@]21C)C(C)C.Cl.[Ti+4] (stereo partly specified) | > 25 µM | > 25 µM | – | – | > 25 µM | – | > 25 µM | – | GI50 [1]: > 25 µM; GI50 [2]: > 25 µM; GI50 [5]: > 25 µM; GI50 [7]: > 25 µM
CNCC(=O)NC(CO)C(=O)NC(CO)C(=O)NC1C(C(N)=O)OC(n2ccc(N)nc2=O)C(O)C1O (stereo unspecified) | – | – | – | – | – | – | – | > 50 µg/mL | GI50 [9]: 12.4 µg/mL
[Cl][Hg][c]1ccc2ccccc2c1 | – | – | – | – | – | – | – | 2.88 µM | GI50 [9]: 1.5 µM
CCOC(=O)C(=O)Nc1c(C)cccc1C(C)(C)C | – | > 100 µM | > 100 µM | > 100 µM | > 100 µM | > 100 µM | > 100 µM | – | TGI [8]: > 100 µM
O=C(NNc1ccccc1)c1ccc(Cl)c(Cl)c1 | – | – | – | – | – | – | – | > 100 µM | –
NC(Cc1cccnn1)C(=O)O (stereo unspecified) | – | – | – | – | – | – | – | > 100 µM | –
COc1ccc(/C=C\c2cc(OC)c(OC)c(OC)c2)cc1OC(=O)CC(N)C(=O)O (stereo unspecified) | > 100 µM | > 100 µM | 0.00792 µM | 0.00318 µM | – | > 100 µM | 0.00462 µM | 0.000474 µM | GI50 [2]: > 100 µM
NC(=O)C(=O)C1C(=O)N(c2ccccc2)N=C1N (stereo unspecified) | > 100 µM | – | > 100 µM | – | > 100 µM | > 100 µM | > 100 µM | – | –
CN(CCCN1C(=O)c2cccc3cc([N+](=O)[O-])cc(c23)C1=O)CCN(C)CCCN1C(=O)c2cccc3cc([N+](=O)[O-])cc(c23)C1=O | – | > 39.3 µM | > 39.3 µM | > 39.3 µM | > 39.3 µM | > 39.3 µM | > 39.3 µM | – | TGI [8]: > 39.3 µM
CCCCCCCCC(C)CCCCCCCCC(=O)OCC(COP(=O)([O-])OCC[N+](C)(C)C)OC(=O)CCCCCCCCC(C)CCCCCCCC (stereo unspecified) | > 100 µM | > 100 µM | – | > 100 µM | > 100 µM | > 100 µM | > 100 µM | – | TGI [8]: > 100 µM
CN(C)C(=S)/N=c1\ssc(=S)n1Cc1ccco1 | > 100 µM | > 100 µM | 60.1 µM | > 74 µM | > 100 µM | > 100 µM | > 42.2 µM | – | TGI [8]: > 100 µM
Cc1c(NC(=O)Nc2c(Cl)cccc2Cl)c(=O)n(-c2ccccc2)n1C | – | – | – | – | – | – | – | > 100 µM | –
Cc1ccc(C2[C@H]3C(=O)N(c4ccc(Cc5ccc(N6C(=O)[C@@H]7ON(c8ccccc8)C(c8ccc(C)cc8)[C@@H]7C6=O)cc5)cc4)C(=O)[C@H]3ON2c2ccccc2)cc1 (stereo partly specified) | > 100 µM | > 100 µM | > 100 µM | > 100 µM | > 100 µM | – | > 100 µM | – | –
CCCCCN(CCCCC)C(=O)[C@H](CCC(=O)O)NC(=O)c1cc2ccccc2[nH]1 | > 100 µM | – | > 100 µM | > 100 µM | > 100 µM | > 100 µM | > 100 µM | – | –
C=C(C)C1CCC2=CC(CC3(C)OC3C3=CC(C(=O)OC)=C(C1)O3)OC2=O (stereo unspecified) | – | – | – | – | – | – | – | > 100 µM | –
C=C1C(=O)O[C@@H]2CC(CO)=C([C@@H](C)CCCO)[C@@H](OC(=O)/C(C)=C\C)[C@H]12 | – | – | – | – | – | – | – | > 67.3 µM | –
N#CC(C(=N/O)/C(=N\O)C(C#N)c1ccccc1)c1ccccc1 (stereo unspecified) | > 100 µM | > 100 µM | > 100 µM | > 100 µM | > 100 µM | > 100 µM | – | – | TGI [8]: > 100 µM
